Data: PubChem BioAssay (NCI)
“And” between values parts separate entries of the source, which are not always exact repeats. Equal values may be shown once.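 48-hour exposure; five concentrations; linearly interpolated endpoints. The concentration for 50% growth inhibition is given as GI50. The concentration for full growth arrest is given as TGI.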

Key:
Assay in all cases: NCI-60 cell line screen, 48 h
[1] = test system: SF-539 CNS
[2] = test system: HOP-92 NSCLC
[3] = test system: MDA-MB-231 breast
[4] = test system: U251 CNS
[5] = test system: RXF 393 renal
[6] = test system: A498 renal
[7] = test system: BT-549 breast
[8] = test system: NCI-H522 lung
[9] = test system: DU-145 prostate
[10] = test system: SK-OV-3 ovarian

Compound | TGI [1] [µM] | TGI [2] | TGI [3] | TGI [4] | TGI [5] | TGI [6] | TGI [7] | TGI [8] [µM] | TGI [9] [µM] | TGI [10] | GI50 [1] [µM] | GI50 [10] | GI50 [2] | GI50 [3] [µM] | GI50 [4] | GI50 [5] | GI50 [6] | GI50 [7] [µM] | GI50 [8] [µM] | GI50 [9] [µM]
O=C(O)c1cccc([As]=[As]c2cccc(C(=O)O)c2)c1 (stereo not drawn) | 39.1 | 37.4 µM | 39.9 µM | 35.5 µM | 81.8 µM | 75.7 µM | > 100 µM | 35.7 | > 100 |  |  |  |  |  |  |  |  |  |  | 
O=CNC(Cc1cnc[nH]1)C(=O)O (stereo not drawn) | > 100 | > 100 µM | > 100 µM | > 100 µM | > 100 µM | > 100 µM | > 100 µM | > 100 | > 100 | > 100 µM |  |  |  |  |  |  |  |  |  | 
COc1ccc(-c2cn(C)c3c2-n2cccc2C3=O)cc1O | 16.5 | > 100 µM | 29.8 µM | 29.8 µM | 99.4 µM | 9.4 µM | 23.2 µM | 40.8 | 32.9 | 94.7 µM | 1.76 | 5.86 µM | 6.8 µM | 3.65 | 8.61 µM | 42.3 µM | 2.82 µM | 3.99 | 10.1 | 12.5
C[C@H]1C[C@@H](n2c(Nc3ccc(OC(F)(F)F)cc3)nc3cc(CCC(=O)O)ccc32)CC(C)(C)C1 | 37.7 | 32.1 µM | 32.9 µM | 28.1 µM | 25.2 µM | 23.2 µM | 12 µM | 33.2 | 27.2 | 35.4 µM | 13.1 | 20 µM | 16.4 µM | 16 | 11.2 µM | 11.3 µM | 11.1 µM | 3.13 | 14 | 13.8
COc1ccc2nc3cc(Cl)ccc3c(Nc3ccccc3-c3ccccc3Nc3c4ccc(Cl)cc4nc4ccc(OC)cc34)c2c1 | > 67.2 | > 82.5 µM | > 100 µM | > 93.5 µM | > 53.5 µM | 97.5 µM | 42.2 µM | 32 | > 100 | > 100 µM |  |  |  |  |  |  |  |  |  | 
CC(NCCN(C)C)C1CCC2C3CCc4cc(O)ccc4C3CCC12C (stereo not drawn) | 9.52 | 13.1 µM | 4.42 µM | 4.35 µM | 3.69 µM | 8.38 µM | 31.4 µM | 10.6 | 18.6 | 15.9 µM |  |  |  |  |  |  |  |  |  | 
CC(=O)c1cc2c(Br)cccc2oc1=O | > 100 | > 100 µM | > 100 µM | > 100 µM | > 100 µM | > 100 µM | > 100 µM | > 100 | > 100 |  |  |  |  |  |  |  |  |  |  | 
COc1ccc2[nH]c3c(C)c4c(c(C)c3c2c1)CN(C)C=C4 | 2 | 19.5 µM | 70 µM | 1.45 µM | 30.4 µM | 21.3 µM | 4.41 µM | 6.34 | 33.8 | 56.6 µM |  |  |  |  |  |  |  |  |  | 
Cc1cc(NC(=O)NCCOc2ccc(N3C(N)=NC(N)=NC3(C)C)cc2Cl)ccc1S(=O)(=O)F | 18.1 | 22.2 µM | > 77.9 µM | > 72.9 µM | > 100 µM | > 100 µM | > 76.8 µM | 17.7 | > 100 | > 100 µM | 2.93 | 12 µM | 5.07 µM | 6.11 | 0.716 µM | 2.05 µM | 10.2 µM | 6.31 | 2.54 | 2.53
COc1ccc(-c2nc(NC(=O)CS(=O)(=O)c3ccc(F)cc3)sc2C)cc1 | 37.2 | 48 µM | > 100 µM | 51.3 µM | 49.7 µM | 32.8 µM | 40.3 µM |  | > 100 | > 100 µM | 16.9 | 24.1 µM | 14.2 µM | 23.2 | 19.2 µM | 15.6 µM | 11.6 µM | 15.8 |  | 34.5
CCC/C=C/C=C/C(=O)OC1/C(=C/C(=O)OC)CC2CC(C(C)O)OC(=O)CC(O)CC3CC(OC(C)=O)C(C)(C)C(O)(CC4C/C(=C/C(=O)OC)CC(/C=C/C(C)(C)C1(O)O2)O4)O3 (stereo not drawn) | > 12.5 | 10.9 µM and 11 µM and > 12.5 µM | 11 µM and > 12.5 µM | > 10.9 µM and 9.3 µM and > 12.5 µM | 10.9 µM and > 12.5 µM | 10.9 µM and 11 µM and > 12.5 µM | 11 µM and > 12.5 µM | > 12.5 | > 12.5 | > 10.9 µM and 11 µM and > 12.5 µM | > 11 | > 10.9 µM and 8.51 µM and > 12.5 µM | 7.79 µM and 5.61 µM and 4.84 µM | > 12.5 | > 10.9 µM and 7.21 µM and > 12.5 µM | 10.6 µM and 5.25 µM and > 12.5 µM | 7.67 µM and 9.27 µM | > 12.5 | > 11 | > 11
O=C(O)CCC(O)=C1S(=O)(=O)OCCOS1(=O)=O | > 100 | > 100 µM | > 100 µM | > 100 µM | > 100 µM | > 100 µM | > 100 µM | > 100 | > 100 | > 100 µM |  |  |  |  |  |  |  |  |  | 
COc1ccc(CCN2CCCn3c2nc2ccccc2c3=O)cc1 | 0.432 | > 95.6 µM | > 100 µM |  | 35.8 µM | 0.814 µM | > 100 µM | 1.14 | > 64.8 | > 100 µM | 0.0876 | 0.396 µM | 3.33 µM | 0.408 | 0.0552 µM | 0.2 µM | 0.0296 µM | 0.717 | 0.035 | 0.211
Cc1cccc(CNc2c3ccccc3nc3ccccc23)c1 | 3.14 | 4.57 µM | 4.07 µM | 5.54 µM | 3.07 µM | 2.7 µM | 6.32 µM | 4.67 | 11.7 | 10.5 µM | 1.67 | 2.61 µM | 1.22 µM | 1.65 | 1.96 µM | 1.54 µM | 1.32 µM | 2.34 | 1.53 | 3.28
CN[C@@H](C)C(=O)N[C@H](C(=O)N1CCC[C@H]1c1nc(C(=O)c2ccc(F)cc2)cs1)C1CCCCC1 | 17.6 | 8.98 µM | 20.6 µM | 33.3 µM | 16.3 µM | 25.4 µM | 26.7 µM | 16.5 | > 100 |  | 0.838 |  | 2.8 µM | 0.324 | 15.6 µM | 1.94 µM | 6.59 µM | 11.7 | 3.45 | 44.5
